“And” between values parts separate entries of the source, which are not always exact repeats. Equal entries are not always repeated. Toxic doses and inconclusive results are not listed. Cut-off read from the data, not from the text of the source: active = T/C of 150% or more; inactive = T/C below 125%.
Test system: L1210 leukemia ip in BDF1 mice, survival T/C
Experiment: NCI In Vivo Anticancer Drug Screen. Data for tumor model L1210 Leukemia (intraperitoneal) in B6D2F1 (BDF1) mice
Details: endpoint: mean survival time, higher = longer survival
Method in brief: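 Survival endpoint. Drug-treated group vs vehicle group, expressed as T divided by C. Tumor passaged by transplantation.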

[1] = dose: 25.0 mg/kg/injection, schedule: Q01DX009 (ip), vehicle: Klucel (hydroxypropylcellulose) (HPC)
[2] = dose: 50.0 mg/kg/injection, schedule: Q01DX009 (ip), vehicle: Klucel (hydroxypropylcellulose) (HPC)
[3] = dose: 100.0 mg/kg/injection, schedule: Q04DX003 (ip), vehicle: Klucel (hydroxypropylcellulose) (HPC)
[4] = dose: 200.0 mg/kg/injection, schedule: Q04DX003 (ip), vehicle: Klucel (hydroxypropylcellulose) (HPC)
[5] = dose: 400.0 mg/kg/injection, schedule: Q04DX003 (ip), vehicle: Klucel (hydroxypropylcellulose) (HPC)
[6] = dose: 100.0 mg/kg/injection, schedule: Q01DX001 (ip), vehicle: saline
[7] = dose: 200.0 mg/kg/injection, schedule: Q01DX001 (ip), vehicle: saline
[8] = dose: 400.0 mg/kg/injection, schedule: Q01DX001 (ip), vehicle: saline
[9] = dose: 100.0 mg/kg/injection, schedule: Q04DX002 (ip), vehicle: saline with Tween-80
[10] = dose: 200.0 mg/kg/injection, schedule: Q04DX002 (ip), vehicle: saline with Tween-80
[11] = dose: 400.0 mg/kg/injection, schedule: Q04DX002 (ip), vehicle: saline with Tween-80
[12] = dose: 100.0 mg/kg/injection, schedule: Q01DX001 (ip), vehicle: carboxymethylcellulose (CMC)
[13] = dose: 200.0 mg/kg/injection, schedule: Q01DX001 (ip), vehicle: carboxymethylcellulose (CMC)
[14] = dose: 400.0 mg/kg/injection, schedule: Q01DX001 (ip), vehicle: carboxymethylcellulose (CMC)
[15] = dose: 100.0 mg/kg/injection, schedule: Q01DX009 (ip), vehicle: Klucel (hydroxypropylcellulose) (HPC)
[16] = dose: 200.0 mg/kg/injection, schedule: Q01DX009 (ip), vehicle: Klucel (hydroxypropylcellulose) (HPC)
[17] = dose: 400.0 mg/kg/injection, schedule: Q01DX009 (ip), vehicle: Klucel (hydroxypropylcellulose) (HPC)
[18] = dose: 12.5 mg/kg/injection, schedule: Q01DX009 (ip), vehicle: Klucel (hydroxypropylcellulose) (HPC)

Measured: T/C

CCC[CH2][Ge]([Cl])([Cl])[CH2]CCC
inactive: [1] 89 % of control | dose: 25.0 mg/kg/injection, schedule: Q04DX003 (ip), vehicle: Klucel (hydroxypropylcellulose) (HPC) 93 % of control | [2] 94 % of control | dose: 50.0 mg/kg/injection, schedule: Q04DX003 (ip), vehicle: Klucel (hydroxypropylcellulose) (HPC) 96 % of control | [3] 106 % of control

C#CCOC(=O)c1ccc(C(=O)OCC#C)cc1
inactive: dose: 100.0 mg/kg/injection, schedule: Q01DX009 (ip), vehicle: saline sonified 106 % of control | [3] 100 % of control | dose: 200.0 mg/kg/injection, schedule: Q01DX009 (ip), vehicle: saline sonified 96 % of control | [4] 106 % of control | [5] 90 % of control

CCOC(=O)C1C(=O)CC(C)(O)C(C(=O)OCC)C1c1ccccc1 (centres undefined)
inactive: [6] 98 % of control | dose: 100.0 mg/kg/injection, schedule: Q04DX003 (ip), vehicle: saline 104 % of control | [7] 106 % of control | dose: 200.0 mg/kg/injection, schedule: Q04DX003 (ip), vehicle: saline 100 % of control | [8] 109 % of control | dose: 400.0 mg/kg/injection, schedule: Q04DX003 (ip), vehicle: saline 94 % of control

O=C(Nc1ccccc1)NC(O)C(Cl)(Cl)Cl (centres undefined)
inactive: [3] 95 % of control | [4] 95 % of control | [5] 98 % of control

O=C1CCC(Cc2ccccc2)N1 (centres undefined)
inactive: [9] 97 % of control | [10] 102 % of control | [11] 97 % of control

CC(=O)c1c[nH]c2ccccc12
inactive: dose: 100.0 mg/kg/injection, schedule: Q01DX009 (ip), vehicle: saline 101 % of control | dose: 200.0 mg/kg/injection, schedule: Q01DX009 (ip), vehicle: saline 108 % of control | dose: 400.0 mg/kg/injection, schedule: Q01DX009 (ip), vehicle: saline 95 % of control

O=Cc1ccc(OC(=O)Nc2ccccc2)cc1
inactive: dose: 100.0 mg/kg/injection, schedule: Q01DX009 (ip), vehicle: saline with Tween-80 92 % of control | dose: 100.0 mg/kg/injection, schedule: Q04DX003 (ip), vehicle: saline with Tween-80 105 % of control | dose: 200.0 mg/kg/injection, schedule: Q01DX009 (ip), vehicle: saline with Tween-80 87 % of control | dose: 200.0 mg/kg/injection, schedule: Q04DX003 (ip), vehicle: saline with Tween-80 94 % of control | dose: 400.0 mg/kg/injection, schedule: Q04DX003 (ip), vehicle: saline with Tween-80 93 % of control

Cn1c(=O)cc(CC(=O)C(=O)O)c2ccccc21
inactive: [6] 88 % of control | [7] 93 % of control | [8] 93 % of control

N#CC1(C#N)OC1c1ccccc1Cl (centres undefined)
inactive: dose: 10.0 mg/kg/injection, schedule: Q04DX002 (ip), vehicle: Klucel (hydroxypropylcellulose) (HPC) 100 % of control | dose: 20.0 mg/kg/injection, schedule: Q04DX002 (ip), vehicle: Klucel (hydroxypropylcellulose) (HPC) 100 % of control

O=C(CI)Nc1ccc(O)c2ccccc12
inactive: dose: 3.12 mg/kg/injection, schedule: Q04DX003 (ip), vehicle: water 111 % of control and 86 % of control | dose: 6.25 mg/kg/injection, schedule: Q01DX009 (ip), vehicle: water 99 % of control | dose: 6.25 mg/kg/injection, schedule: Q04DX003 (ip), vehicle: water 121 % of control and 91 % of control | dose: 12.5 mg/kg/injection, schedule: Q01DX009 (ip), vehicle: water 86 % of control | dose: 75.0 mg/kg/injection, schedule: Q04DX003 (ip), vehicle: water 93 % of control

COc1ccc(/C=N/N2CCN(/N=C/c3ccc(OC)cc3)CC2)cc1
inactive: [12] 88 % of control | [13] 88 % of control | [14] 93 % of control

COC(=O)CCCCCCCCCCS.[Pb]
inactive: dose: 50.0 mg/kg/injection, schedule: Q01DX001 (ip), vehicle: carboxymethylcellulose (CMC) 92 % of control | [12] 94 % of control | [13] 94 % of control | [14] 97 % of control

Cc1cn(-c2c(C)c(C)c(-n3c(C)ccc3C)c(C)c2C)cc1C
inactive: [15] 86 % of control | [16] 93 % of control | [17] 90 % of control

CCCCCCCCCCCC1CCCC2CCCCC12 (centres undefined)
inactive: [9] 91 % of control | [10] 91 % of control | [11] 100 % of control

CCOCCOC(=O)CSCC(=O)OCCOCC
inactive: [6] 93 % of control | [7] 104 % of control | [8] 109 % of control

O=C(O)/C(=C\c1ccc([N+](=O)[O-])cc1)c1cccc(Cl)c1
inactive: dose: 100.0 mg/kg/injection, schedule: Q01DX001 (ip), vehicle: Klucel (hydroxypropylcellulose) (HPC) 108 % of control | [15] 96 % of control and 97 % of control | dose: 100.0 mg/kg/injection, schedule: Q04DX002 (ip), vehicle: Klucel (hydroxypropylcellulose) (HPC) 94 % of control and 89 % of control | [3] 106 % of control | dose: 200.0 mg/kg/injection, schedule: Q01DX001 (ip), vehicle: Klucel (hydroxypropylcellulose) (HPC) 103 % of control | [16] 97 % of control and 102 % of control | dose: 200.0 mg/kg/injection, schedule: Q04DX002 (ip), vehicle: Klucel (hydroxypropylcellulose) (HPC) 101 % of control and 102 % of control | [4] 97 % of control | dose: 400.0 mg/kg/injection, schedule: Q01DX001 (ip), vehicle: Klucel (hydroxypropylcellulose) (HPC) 98 % of control | dose: 400.0 mg/kg/injection, schedule: Q04DX002 (ip), vehicle: Klucel (hydroxypropylcellulose) (HPC) 99 % of control | [5] 99 % of control

O=S(=O)(c1ccccc1)c1ccc(O)cc1
inactive: dose: 50.0 mg/kg/injection, schedule: Q01DX001 (ip), vehicle: saline 95 % of control | [6] 89 % of control | [7] 108 % of control | [8] 101 % of control

O=S(=O)(OCCNc1ccccc1)c1ccccc1
inactive: dose: 75.0 mg/kg/injection, schedule: Q01DX001 (ip), vehicle: saline 101 % of control | dose: 150.0 mg/kg/injection, schedule: Q01DX001 (ip), vehicle: saline 98 % of control | dose: 300.0 mg/kg/injection, schedule: Q01DX001 (ip), vehicle: saline 98 % of control

N#CC12C(=N)CCC1C1C=CC2C1 (centres undefined)
inactive: dose: 6.25 mg/kg/injection, schedule: Q01DX009 (ip), vehicle: Klucel (hydroxypropylcellulose) (HPC) 100 % of control | [18] 101 % of control | [3] 89 % of control | [4] 93 % of control

CC(OC(C)c1ccccc1)c1ccccc1 (centres undefined)
inactive: [15] 96 % of control | [16] 105 % of control | [17] 101 % of control

COc1cc2c(cc1OC)C(CCc1ccc(Cl)cc1)N(C)CC2 (centres undefined)
inactive: [18] 113 % of control | [1] 108 % of control | [2] 104 % of control | [15] 116 % of control | [16] 113 % of control

CC(C)c1ccc(N2CSC(=S)N(c3ccc(C(C)C)cc3)C2)cc1
inactive: dose: 100.0 mg/kg/injection, schedule: Q04DX002 (sc), vehicle: olive oil, sesame oil, peanut oil 104 % of control | dose: 200.0 mg/kg/injection, schedule: Q04DX002 (sc), vehicle: olive oil, sesame oil, peanut oil 107 % of control | dose: 400.0 mg/kg/injection, schedule: Q04DX002 (sc), vehicle: olive oil, sesame oil, peanut oil 101 % of control

Reference: PubChem BioAssay AID248 (DTP/NCI, 2004)
